In patent publication US8765721B2, “Composition comprising phosphatidyl serine and an antigen or allergen and the use thereof” (Vaccine Technology Limited, priority 2004, dated 2014):

Columns and labels:
Assay type in all cases: in vivo, rat
[1] = system: IgE; test: Ovalbumin-specific IgE ELISA of serum of immunised rats; conditions: pooled group serum
Procedure: (§1) Rats were injected with vaccine compositions comprising the ovalbumin antigen with and without di-oleoyl phosphatidyl serine, lyso-oleoyl phosphatidyl serine or stearoyl(X1)-arachidonoyl(X2) phosphatidyl serine and the concentrations of IgE, IgA and IgG are compared.
(§2) The animals were acclimatised for a period of 5 days prior to dosing. During the acclimatisation period animals were observed twice daily during the working week and once on each day during the weekend to evaluate the health status of the animals. Rats were then allocated to the following dose groups using computer-generated random order numbers.
(§3) On day 0, 20 μg of ovalbumin (OA) in phosphate buffered saline (PBS) with alhydrogel (AHG) adjuvant in a final volume of 0.5 mL was administered.
(§4) On days 21 and 42, 20 μg of ovalbumin (OA) in phosphate buffered saline (PBS) with the relevant test compound in a final volume of 0.5 ml was administered.
(§5) In each case, 0.5 mL of inoculum was injected subcutaneously into the scruff of the neck.
(§6) […] A blood sample was also taken from each animal on Days 15, 22, 29, 36, 43, 50, 57 and 64.
(§7) Serum was prepared by centrifugation of the blood sample at 2,500 rpm for 10 minutes and frozen at −20° C. The samples were then analysed by ELISA to establish the concentration of IgE, IgA and IgG1, IgG2a and IgG2b.
(§8) The purpose of an ELISA is to determine whether a particular protein is present in a sample and then enables quantification of how much is present. By coating the bottom of wells with ovalbumin (OVA) it is possible to bind anti-OVA specific antibodies. To detect only anti-OVA IgA antibodies anti-rat IgA conjugated to HRP was used as a secondary antibody. Quantification of specific antibodies in the rat sera samples was performed using antibody titrations. The data was reported as endpoint titers. Endpoint titers are defined as the last serum dilution giving an optical density value equal to twice the background optical density for the ELISA plate (buffer).

[2] = system: IgA; test: Ovalbumin-specific IgA ELISA of serum of immunised rats; conditions: pooled group serum
Procedure: as §1, §2, §3, §4, §5
On Day 0 a pre-inoculation blood sample was taken. A blood sample was also taken from each animal on Days 15, 22, 29, 36, 43, 50, 57 and 64.
as §7, §8

[3] = system: IgG1; test: Ovalbumin-specific IgG1 ELISA of serum of immunised rats; conditions: pooled group serum
Procedure: as §1, §2, §3, §4
(§9) In each case, 0.5 mL of inoculum was injected subcutaneously into the scruff of the neck. […]
as §7
as §8, with “To detect only anti-OVA IgA antibodies anti-rat IgA conjugated to HRP was used as a secondary antibody.” left out

[4] = system: IgG2a; test: Ovalbumin-specific IgG2a ELISA of serum of immunised rats; conditions: pooled group serum
Procedure: as §1, §2, §3, §4, §9, §7, §8

[5] = system: IgG2b; test: Ovalbumin-specific IgG2b ELISA of serum of immunised rats; conditions: pooled group serum
Procedure: as §1, §2, §3, §4, §5, §6, §7, §8

[6] = system: IgE; test: Ovalbumin-specific IgE ELISA of serum of immunised rats; conditions: Day 1; 250 ug with 20 μg Ova s.c. on days 21 and 42; pooled group serum
[7] = system: IgA; test: Ovalbumin-specific IgA ELISA of serum of immunised rats; conditions: Day 1; 50 ug with 20 μg Ova s.c. on days 21 and 42; pooled group serum
[8] = Day 1, 50 ug with 20 μg Ova s.c. on days 21 and 42
[9] = Day 15, 50 ug with 20 μg Ova s.c. on days 21 and 42
[10] = Day 15, 250 ug with 20 μg Ova s.c. on days 21 and 42
[11] = Day 22, 50 ug with 20 μg Ova s.c. on days 21 and 42
[12] = Day 22, 250 ug with 20 μg Ova s.c. on days 21 and 42
[13] = Day 29, 50 ug with 20 μg Ova s.c. on days 21 and 42
[14] = Day 29, 250 ug with 20 μg Ova s.c. on days 21 and 42
[15] = Day 36, 50 ug with 20 μg Ova s.c. on days 21 and 42
[16] = Day 36, 250 ug with 20 μg Ova s.c. on days 21 and 42
[17] = Day 43, 50 ug with 20 μg Ova s.c. on days 21 and 42
[18] = Day 43, 250 ug with 20 μg Ova s.c. on days 21 and 42
[19] = Day 50, 50 ug with 20 μg Ova s.c. on days 21 and 42
[20] = Day 50, 250 ug with 20 μg Ova s.c. on days 21 and 42
[21] = Day 57, 50 ug with 20 μg Ova s.c. on days 21 and 42
[22] = Day 57, 250 ug with 20 μg Ova s.c. on days 21 and 42
[23] = Day 64, 50 ug with 20 μg Ova s.c. on days 21 and 42
[24] = Day 64, 250 ug with 20 μg Ova s.c. on days 21 and 42
[25] = Day 1, 250 ug with 20 μg Ova s.c. on days 21 and 42

CCCCCCCC/C=C\CCCCCCCC(=O)OC[C@@H](O)COP(=O)(O)OC[C@H](N)C(=O)O [VT002, Lyso oleoyl phosphatidyl serine]
2560: IgA endpoint titer [2, 19] | IgA endpoint titer [2, 23] | IgG1 endpoint titer [3, 11] | IgG1 endpoint titer [3, 12] | IgG2a endpoint titer [4, 13] | IgG2a endpoint titer [4, 16] | IgG2a endpoint titer [4, 18] | IgG2b endpoint titer [5, 21] | IgG2b endpoint titer [5, 24]
40: IgE endpoint titer [1, 15] | IgE endpoint titer [1, 18] | IgG2a endpoint titer [4, 9] | IgG2b endpoint titer [5, 10] | IgG2b endpoint titer [5, 14]
20: IgE endpoint titer [1, 16]
160: IgE endpoint titer [1, 22] | IgE endpoint titer [1, 23] | IgE endpoint titer [1, 24] | IgA endpoint titer [2, 15] | IgA endpoint titer [2, 18] | IgG2b endpoint titer [5, 13]
10240: IgG1 endpoint titer [3, 13] | IgG1 endpoint titer [3, 18]
1280: IgE endpoint titer [1, 19] | IgA endpoint titer [2, 20] | IgA endpoint titer [2, 21] | IgA endpoint titer [2, 22] | IgA endpoint titer [2, 24] | IgG2a endpoint titer [4, 11] | IgG2a endpoint titer [4, 14] | IgG2b endpoint titer [5, 23]
640: IgE endpoint titer [1, 20] | IgG1 endpoint titer [3, 10] | IgG2a endpoint titer [4, 12] | IgG2b endpoint titer [5, 17] | IgG2b endpoint titer [5, 18] | IgG2b endpoint titer [5, 19]
20480: IgG1 endpoint titer [3, 15] | IgG1 endpoint titer [3, 16] | IgG1 endpoint titer [3, 17] | IgG1 endpoint titer [3, 20] | IgG2a endpoint titer [4, 19] | IgG2a endpoint titer [4, 20] | IgG2a endpoint titer [4, 21] | IgG2a endpoint titer [4, 22] | IgG2a endpoint titer [4, 23] | IgG2a endpoint titer [4, 24]
40960: IgG1 endpoint titer [3, 19] | IgG1 endpoint titer [3, 21] | IgG1 endpoint titer [3, 22] | IgG1 endpoint titer [3, 23] | IgG1 endpoint titer [3, 24]
5120: IgG1 endpoint titer [3, 14] | IgG2a endpoint titer [4, 15] | IgG2a endpoint titer [4, 17] | IgG2b endpoint titer [5, 20] | IgG2b endpoint titer [5, 22]
0: IgE endpoint titer [1, 8] | IgE endpoint titer [1, 9] | IgE endpoint titer [1, 10] | IgE endpoint titer [1, 11] | IgE endpoint titer [1, 12] | IgE endpoint titer [1, 14] | IgA endpoint titer [2, 25] | IgA endpoint titer [2, 9] | IgA endpoint titer [2, 10] | IgA endpoint titer [2, 11] | IgA endpoint titer [2, 12] | IgA endpoint titer [2, 13] | IgA endpoint titer [2, 14] | IgG1 endpoint titer [3, 8] | IgG1 endpoint titer [3, 25] | IgG2a endpoint titer [4, 8] | IgG2a endpoint titer [4, 25] | IgG2b endpoint titer [5, 8] | IgG2b endpoint titer [5, 25] | IgG2b endpoint titer [5, 9] | IgG2b endpoint titer [5, 11] | IgE endpoint titer [6] | IgA endpoint titer [7]
320: IgE endpoint titer [1, 21] | IgA endpoint titer [2, 17] | IgG1 endpoint titer [3, 9] | IgG2b endpoint titer [5, 15] | IgG2b endpoint titer [5, 16]
80: IgE endpoint titer [1, 13] | IgE endpoint titer [1, 17] | IgA endpoint titer [2, 16] | IgG2a endpoint titer [4, 10] | IgG2b endpoint titer [5, 12]

CCCCC/C=C\C/C=C\C/C=C\C/C=C\CCCC(=O)O[C@H](COC(=O)CCCCCCCCCCCCCCCCC)COP(=O)(O)OC[C@H](N)C(=O)O [VT003, Stearoyl arachadonoyl phosphatidyl serine]
1280: IgA endpoint titer [2, 19] | IgA endpoint titer [2, 24] | IgG2a endpoint titer [4, 11] | IgG2a endpoint titer [4, 12] | IgG2b endpoint titer [5, 18] | IgG2b endpoint titer [5, 22] | IgG2b endpoint titer [5, 24]
40960: IgG1 endpoint titer [3, 23]
640: IgA endpoint titer [2, 15] | IgA endpoint titer [2, 17] | IgA endpoint titer [2, 20] | IgA endpoint titer [2, 21] | IgA endpoint titer [2, 22] | IgA endpoint titer [2, 23] | IgG2b endpoint titer [5, 15] | IgG2b endpoint titer [5, 16] | IgG2b endpoint titer [5, 21] | IgG2b endpoint titer [5, 23]
20: IgE endpoint titer [1, 24]
160: IgA endpoint titer [2, 16] | IgG2b endpoint titer [5, 19]
320: IgE endpoint titer [1, 19] | IgA endpoint titer [2, 18] | IgG1 endpoint titer [3, 9] | IgG1 endpoint titer [3, 10] | IgG2b endpoint titer [5, 11] | IgG2b endpoint titer [5, 17] | IgG2b endpoint titer [5, 20]
20480: IgG1 endpoint titer [3, 13] | IgG1 endpoint titer [3, 14] | IgG1 endpoint titer [3, 15] | IgG1 endpoint titer [3, 16] | IgG1 endpoint titer [3, 17] | IgG1 endpoint titer [3, 19] | IgG1 endpoint titer [3, 24] | IgG2a endpoint titer [4, 19] | IgG2a endpoint titer [4, 20] | IgG2a endpoint titer [4, 23] | IgG2a endpoint titer [4, 24]
40: IgE endpoint titer [1, 22] | IgE endpoint titer [1, 23] | IgA endpoint titer [2, 13] | IgA endpoint titer [2, 14] | IgG2a endpoint titer [4, 9] | IgG2a endpoint titer [4, 10] | IgG2b endpoint titer [5, 9] | IgG2b endpoint titer [5, 10] | IgG2b endpoint titer [5, 13]
5120: IgG2a endpoint titer [4, 16] | IgG2a endpoint titer [4, 18]
2560: IgG1 endpoint titer [3, 11] | IgG1 endpoint titer [3, 12] | IgG2a endpoint titer [4, 13] | IgG2a endpoint titer [4, 14]
10240: IgG1 endpoint titer [3, 18] | IgG1 endpoint titer [3, 20] | IgG1 endpoint titer [3, 21] | IgG1 endpoint titer [3, 22] | IgG2a endpoint titer [4, 15] | IgG2a endpoint titer [4, 17] | IgG2a endpoint titer [4, 21] | IgG2a endpoint titer [4, 22]
80: IgE endpoint titer [1, 20] | IgE endpoint titer [1, 21] | IgG2b endpoint titer [5, 12] | IgG2b endpoint titer [5, 14]
0: IgE endpoint titer [1, 8] | IgE endpoint titer [1, 9] | IgE endpoint titer [1, 10] | IgE endpoint titer [1, 11] | IgE endpoint titer [1, 12] | IgE endpoint titer [1, 13] | IgE endpoint titer [1, 14] | IgE endpoint titer [1, 15] | IgE endpoint titer [1, 16] | IgE endpoint titer [1, 17] | IgE endpoint titer [1, 18] | IgA endpoint titer [2, 25] | IgA endpoint titer [2, 9] | IgA endpoint titer [2, 10] | IgA endpoint titer [2, 11] | IgA endpoint titer [2, 12] | IgG1 endpoint titer [3, 8] | IgG1 endpoint titer [3, 25] | IgG2a endpoint titer [4, 8] | IgG2a endpoint titer [4, 25] | IgG2b endpoint titer [5, 8] | IgG2b endpoint titer [5, 25] | IgE endpoint titer [6] | IgA endpoint titer [7]
